Assays:
Test in all cases: radiometric filter-binding kinase assay, Kinase HotSpot
Conditions in all cases: compound 0.5 µM; ATP 10 µM
TEK (human) = TEK (human) (UniProt Q02763)
TAOK3 (human) = TAOK3 (human) (UniProt Q9H2K8)
YES1 (human) = YES1 (human) (UniProt P07947)
STK33 (human) = STK33 (human) (UniProt Q9BYT3)
MAPKAPK2 (human) = MAPKAPK2 (human) (UniProt P49137)
CDK9 CCNK (human) = CDK9 CCNK (human) (UniProt O75909+P50750)
IGF1R (human) = IGF1R (human) (UniProt P08069)
FLT1 (human) = FLT1 (human) (UniProt P17948)
PAK1 (human) = PAK1 (human) (UniProt Q13153)
AURKB (human) = AURKB (human) (UniProt Q96GD4)
MAP3K5 (human) = MAP3K5 (human) (UniProt Q99683)
GSG2 (human) = GSG2 (human) (UniProt Q8TF76)
HIPK4 (human) = HIPK4 (human) (UniProt Q8NE63)
NTRK2 (human) = NTRK2 (human) (UniProt Q16620)
PRKCE (human) = PRKCE (human) (UniProt Q02156)
RPS6KB2 (human) = RPS6KB2 (human) (UniProt Q9UBS0)
HIPK2 (human) = HIPK2 (human) (UniProt Q9H2X6)
ZAP70 (human) = ZAP70 (human) (UniProt P43403)
CDK9 CCNT1 (human) = CDK9 CCNT1 (human) (UniProt P50750+O60563)
MAP3K3 (human) = MAP3K3 (human) (UniProt Q99759)
STK4 (human) = STK4 (human) (UniProt Q13043)
CAMK1G (human) = CAMK1G (human) (UniProt Q96NX5)
WNK2 (human) = WNK2 (human) (UniProt Q9Y3S1)
AXL (human) = AXL (human) (UniProt P30530)
ITK (human) = ITK (human) (UniProt Q08881)
PLK2 (human) = PLK2 (human) (UniProt Q9NYY3)
SYK (human) = SYK (human) (UniProt P43405)
FLT3 (human) = FLT3 (human) (UniProt P36888)
CSNK1E (human) = CSNK1E (human) (UniProt P49674)
MAP3K14 (human) = MAP3K14 (human) (UniProt Q99558)
SRPK2 (human) = SRPK2 (human) (UniProt P78362)
TXK (human) = TXK (human) (UniProt P42681)
MAP3K9 (human) = MAP3K9 (human) (UniProt P80192)
PTK2B (human) = PTK2B (human) (UniProt Q14289)
CLK1 (human) = CLK1 (human) (UniProt P49759)
NLK (human) = NLK (human) (UniProt Q9UBE8)
PLK3 (human) = PLK3 (human) (UniProt Q9H4B4)
SGK3 (human) = SGK3 (human) (UniProt Q96BR1)
DAPK1 (human) = DAPK1 (human) (UniProt P53355)
[1] = molecular target: TYK2 JH1 catalytic (human) (UniProt P29597)

IGF1R (human), sequence (P08069 whole entry, looked up): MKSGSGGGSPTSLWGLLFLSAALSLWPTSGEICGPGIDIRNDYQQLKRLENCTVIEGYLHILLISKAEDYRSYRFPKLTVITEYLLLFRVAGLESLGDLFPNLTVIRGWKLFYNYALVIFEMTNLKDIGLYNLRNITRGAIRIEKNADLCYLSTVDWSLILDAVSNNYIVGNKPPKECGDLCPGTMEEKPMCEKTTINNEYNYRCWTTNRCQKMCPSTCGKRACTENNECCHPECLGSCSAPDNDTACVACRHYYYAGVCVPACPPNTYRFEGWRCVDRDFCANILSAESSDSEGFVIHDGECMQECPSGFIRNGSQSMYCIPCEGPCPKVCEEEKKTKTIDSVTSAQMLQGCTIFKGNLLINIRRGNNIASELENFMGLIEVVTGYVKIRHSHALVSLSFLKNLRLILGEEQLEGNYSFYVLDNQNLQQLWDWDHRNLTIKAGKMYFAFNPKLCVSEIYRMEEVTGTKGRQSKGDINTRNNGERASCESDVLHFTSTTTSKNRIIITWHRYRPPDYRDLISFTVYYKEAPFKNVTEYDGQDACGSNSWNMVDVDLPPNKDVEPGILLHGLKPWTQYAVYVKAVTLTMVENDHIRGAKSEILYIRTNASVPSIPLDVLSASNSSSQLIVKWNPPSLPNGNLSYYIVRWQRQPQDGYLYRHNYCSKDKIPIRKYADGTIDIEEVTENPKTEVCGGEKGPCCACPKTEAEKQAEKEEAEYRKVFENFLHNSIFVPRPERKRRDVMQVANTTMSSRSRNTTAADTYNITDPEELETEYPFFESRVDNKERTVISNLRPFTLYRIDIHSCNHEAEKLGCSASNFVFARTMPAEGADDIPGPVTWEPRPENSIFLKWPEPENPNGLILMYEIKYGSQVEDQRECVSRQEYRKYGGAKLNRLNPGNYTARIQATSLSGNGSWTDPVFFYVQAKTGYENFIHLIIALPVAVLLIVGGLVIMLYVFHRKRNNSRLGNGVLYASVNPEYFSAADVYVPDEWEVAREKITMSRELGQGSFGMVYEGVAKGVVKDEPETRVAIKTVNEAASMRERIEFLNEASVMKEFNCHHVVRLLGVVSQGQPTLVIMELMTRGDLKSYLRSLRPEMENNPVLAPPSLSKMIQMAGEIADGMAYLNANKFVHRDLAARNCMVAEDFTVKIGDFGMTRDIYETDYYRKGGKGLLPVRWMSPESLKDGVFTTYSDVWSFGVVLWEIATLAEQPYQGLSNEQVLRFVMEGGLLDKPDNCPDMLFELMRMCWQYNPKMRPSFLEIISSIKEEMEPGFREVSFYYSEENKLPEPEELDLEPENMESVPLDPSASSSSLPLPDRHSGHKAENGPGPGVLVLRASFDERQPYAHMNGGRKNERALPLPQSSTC
MAP3K9 (human), sequence (P80192 whole entry, looked up): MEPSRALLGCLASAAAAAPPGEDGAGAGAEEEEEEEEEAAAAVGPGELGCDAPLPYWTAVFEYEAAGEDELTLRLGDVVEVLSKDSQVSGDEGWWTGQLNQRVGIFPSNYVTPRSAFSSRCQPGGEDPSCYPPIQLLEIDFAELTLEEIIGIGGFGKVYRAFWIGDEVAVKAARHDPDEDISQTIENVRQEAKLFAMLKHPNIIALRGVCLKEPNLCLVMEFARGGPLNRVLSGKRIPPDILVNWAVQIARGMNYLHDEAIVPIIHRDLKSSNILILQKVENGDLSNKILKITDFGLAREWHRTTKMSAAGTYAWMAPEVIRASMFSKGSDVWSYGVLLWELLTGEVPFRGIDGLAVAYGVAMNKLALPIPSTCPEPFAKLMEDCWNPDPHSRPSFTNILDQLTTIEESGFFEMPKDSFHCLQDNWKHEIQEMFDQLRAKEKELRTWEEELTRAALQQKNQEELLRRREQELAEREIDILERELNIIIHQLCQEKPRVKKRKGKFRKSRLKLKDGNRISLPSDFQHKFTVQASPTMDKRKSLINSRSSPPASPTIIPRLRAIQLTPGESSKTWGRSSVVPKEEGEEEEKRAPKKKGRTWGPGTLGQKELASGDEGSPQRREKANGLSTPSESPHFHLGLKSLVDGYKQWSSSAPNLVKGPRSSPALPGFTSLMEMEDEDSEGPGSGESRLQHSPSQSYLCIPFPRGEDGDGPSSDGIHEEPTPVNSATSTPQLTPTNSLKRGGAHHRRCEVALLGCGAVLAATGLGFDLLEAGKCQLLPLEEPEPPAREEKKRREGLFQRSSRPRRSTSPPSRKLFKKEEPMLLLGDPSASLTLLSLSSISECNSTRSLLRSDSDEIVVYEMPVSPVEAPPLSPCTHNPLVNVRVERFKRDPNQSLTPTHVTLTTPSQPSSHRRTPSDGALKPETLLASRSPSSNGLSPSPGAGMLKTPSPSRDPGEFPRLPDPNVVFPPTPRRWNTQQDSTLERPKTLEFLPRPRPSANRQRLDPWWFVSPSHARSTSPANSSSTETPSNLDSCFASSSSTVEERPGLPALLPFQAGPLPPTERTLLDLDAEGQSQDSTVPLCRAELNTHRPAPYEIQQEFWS
YES1 (human), sequence (P07947 whole entry, looked up): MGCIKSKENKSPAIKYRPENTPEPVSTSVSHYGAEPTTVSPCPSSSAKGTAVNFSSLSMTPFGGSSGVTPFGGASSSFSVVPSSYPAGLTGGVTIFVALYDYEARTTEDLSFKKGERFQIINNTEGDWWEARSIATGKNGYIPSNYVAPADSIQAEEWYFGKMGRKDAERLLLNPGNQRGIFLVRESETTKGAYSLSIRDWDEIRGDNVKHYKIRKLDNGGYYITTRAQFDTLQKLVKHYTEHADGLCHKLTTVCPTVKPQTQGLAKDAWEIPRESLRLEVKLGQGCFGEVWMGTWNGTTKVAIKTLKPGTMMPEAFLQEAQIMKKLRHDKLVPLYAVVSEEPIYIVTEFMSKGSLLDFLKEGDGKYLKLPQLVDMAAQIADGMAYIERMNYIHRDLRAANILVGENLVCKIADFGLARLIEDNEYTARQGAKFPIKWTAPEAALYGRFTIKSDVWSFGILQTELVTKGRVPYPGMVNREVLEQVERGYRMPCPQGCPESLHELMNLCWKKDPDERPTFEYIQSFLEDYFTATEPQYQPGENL
MAP3K5 (human), sequence (Q99683 whole entry, looked up): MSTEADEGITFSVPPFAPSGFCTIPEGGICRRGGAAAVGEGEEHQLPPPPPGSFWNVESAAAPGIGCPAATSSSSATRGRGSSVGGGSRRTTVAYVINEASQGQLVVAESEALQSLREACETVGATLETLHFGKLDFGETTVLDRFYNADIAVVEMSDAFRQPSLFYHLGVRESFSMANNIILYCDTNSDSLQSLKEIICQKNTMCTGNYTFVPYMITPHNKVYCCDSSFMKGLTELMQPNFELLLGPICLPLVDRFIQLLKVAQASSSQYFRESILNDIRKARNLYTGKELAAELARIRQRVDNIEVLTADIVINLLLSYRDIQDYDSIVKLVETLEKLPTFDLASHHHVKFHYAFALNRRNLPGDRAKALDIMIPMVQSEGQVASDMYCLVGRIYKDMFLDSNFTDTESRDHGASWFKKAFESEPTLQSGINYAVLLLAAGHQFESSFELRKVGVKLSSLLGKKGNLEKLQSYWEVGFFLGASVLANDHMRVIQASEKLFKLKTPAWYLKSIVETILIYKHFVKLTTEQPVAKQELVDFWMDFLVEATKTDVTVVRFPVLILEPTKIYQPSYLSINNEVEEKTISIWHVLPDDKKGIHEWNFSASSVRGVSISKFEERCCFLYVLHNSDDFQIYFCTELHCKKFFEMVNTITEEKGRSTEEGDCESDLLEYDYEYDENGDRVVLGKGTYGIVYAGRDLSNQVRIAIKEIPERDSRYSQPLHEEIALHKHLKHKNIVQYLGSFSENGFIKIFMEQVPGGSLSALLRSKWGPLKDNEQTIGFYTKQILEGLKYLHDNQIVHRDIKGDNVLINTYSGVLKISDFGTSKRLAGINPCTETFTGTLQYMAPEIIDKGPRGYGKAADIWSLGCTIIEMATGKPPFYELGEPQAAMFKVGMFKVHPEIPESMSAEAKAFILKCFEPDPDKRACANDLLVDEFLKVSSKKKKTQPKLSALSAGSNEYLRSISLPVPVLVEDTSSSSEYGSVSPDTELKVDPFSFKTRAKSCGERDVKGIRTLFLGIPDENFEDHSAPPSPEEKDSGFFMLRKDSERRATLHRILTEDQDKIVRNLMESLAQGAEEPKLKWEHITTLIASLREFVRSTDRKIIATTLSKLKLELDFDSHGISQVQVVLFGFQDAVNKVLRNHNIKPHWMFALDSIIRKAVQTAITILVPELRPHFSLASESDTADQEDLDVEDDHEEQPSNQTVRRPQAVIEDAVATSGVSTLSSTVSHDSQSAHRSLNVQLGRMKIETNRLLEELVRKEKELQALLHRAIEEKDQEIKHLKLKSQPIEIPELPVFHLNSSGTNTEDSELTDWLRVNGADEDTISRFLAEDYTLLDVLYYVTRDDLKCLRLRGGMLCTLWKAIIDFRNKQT
SGK3 (human), sequence (Q96BR1 whole entry, looked up): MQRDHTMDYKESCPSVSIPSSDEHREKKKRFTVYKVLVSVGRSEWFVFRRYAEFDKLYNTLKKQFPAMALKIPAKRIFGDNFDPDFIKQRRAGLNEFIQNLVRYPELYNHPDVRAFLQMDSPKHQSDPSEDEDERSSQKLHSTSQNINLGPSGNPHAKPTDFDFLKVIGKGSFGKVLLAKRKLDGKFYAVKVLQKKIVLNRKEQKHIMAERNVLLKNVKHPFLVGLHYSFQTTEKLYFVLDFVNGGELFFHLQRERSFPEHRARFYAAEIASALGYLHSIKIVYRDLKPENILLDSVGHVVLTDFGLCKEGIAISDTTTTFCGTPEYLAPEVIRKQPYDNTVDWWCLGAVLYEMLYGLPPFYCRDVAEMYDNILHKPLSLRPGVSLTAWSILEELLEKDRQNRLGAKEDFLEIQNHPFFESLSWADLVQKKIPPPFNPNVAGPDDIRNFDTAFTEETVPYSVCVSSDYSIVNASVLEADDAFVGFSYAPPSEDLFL

In the case of CC[n+]1c(/C=C/N(C)c2ccccc2)n(-c2ccccc2)c2ccc(-c3nc4ccccc4s3)cc21, the residual activity (TEK (human)) is reported as 96%, the residual activity (TAOK3 (human)) is reported as 116% and the residual activity (YES1 (human)) is reported as 94.9%. The residual activity (STK33 (human)) was 89.4%, the residual activity (MAPKAPK2 (human)) was 97.2% and the residual activity (CDK9 CCNK (human)) was 106%. The residual activity (IGF1R (human)) was 93%, the residual activity (FLT1 (human)) was 94.1% and the residual activity (PAK1 (human)) was 87.5%. It also gave a residual activity (AURKB (human)) of 93.9%, a residual activity (MAP3K5 (human)) of 100% and a residual activity (GSG2 (human)) of 110%. For the same compound, the residual activity (HIPK4 (human)) was 102%, the residual activity (NTRK2 (human)) was 97.8% and the residual activity (PRKCE (human)) was 97.7%. The residual activity (RPS6KB2 (human)) was 93.2%, the residual activity (HIPK2 (human)) was 103% and the residual activity (ZAP70 (human)) was 95.5%. It also gave a residual activity (CDK9 CCNT1 (human)) of 89.5%, a residual activity (MAP3K3 (human)) of 109% and a residual activity (STK4 (human)) of 98.3%. For the same compound, the residual activity (CAMK1G (human)) was 101%, the residual activity (WNK2 (human)) was 112% and the residual activity (AXL (human)) was 101%. For the same compound, the residual activity (ITK (human)) was 92.7%, the residual activity (PLK2 (human)) was 93.1% and the residual activity (SYK (human)) was 104%. It also gave a residual activity (FLT3 (human)) of 98.6%, a residual activity (CSNK1E (human)) of 105% and a residual activity (MAP3K14 (human)) of 96%. For the same compound, the residual activity (SRPK2 (human)) was 105%, the residual activity (TXK (human)) was 107% and the residual activity (MAP3K9 (human)) was 98.3%. It also gave a residual activity (PTK2B (human)) of 103%, a residual activity (CLK1 (human)) of 108% and a residual activity (NLK (human)) of 105%. It also gave a residual activity (PLK3 (human)) of 104%, a residual activity (SGK3 (human)) of 102% and a residual activity (DAPK1 (human)) of 74.7%. It also gave a residual activity [1] of 88.5%.

Work on COc1ccc(COc2ccc(Cc3cnc(N)nc3N)cc2OC)cc1 yielded a residual activity (TEK (human)) of 101%, a residual activity (TAOK3 (human)) of 102% and a residual activity (YES1 (human)) of 94.8%. The residual activity (STK33 (human)) was 96.4%, the residual activity (MAPKAPK2 (human)) was 103% and the residual activity (CDK9 CCNK (human)) was 102%. The residual activity (IGF1R (human)) was 123%, the residual activity (FLT1 (human)) was 99.7% and the residual activity (PAK1 (human)) was 93.4%. It also gave a residual activity (AURKB (human)) of 104%, a residual activity (MAP3K5 (human)) of 89% and a residual activity (GSG2 (human)) of 97.7%. It also gave a residual activity (HIPK4 (human)) of 97.7%, a residual activity (NTRK2 (human)) of 31.2% and a residual activity (PRKCE (human)) of 95.7%. It also gave a residual activity (RPS6KB2 (human)) of 100%, a residual activity (HIPK2 (human)) of 103% and a residual activity (ZAP70 (human)) of 94.3%. For the same compound, the residual activity (CDK9 CCNT1 (human)) was 92.5%, the residual activity (MAP3K3 (human)) was 97.8% and the residual activity (STK4 (human)) was 106%. It also gave a residual activity (CAMK1G (human)) of 98.3%, a residual activity (WNK2 (human)) of 94.6% and a residual activity (AXL (human)) of 96.4%. The residual activity (ITK (human)) was 98.1%, the residual activity (PLK2 (human)) was 116% and the residual activity (SYK (human)) was 89%. It also gave a residual activity (FLT3 (human)) of 103%, a residual activity (CSNK1E (human)) of 97.1% and a residual activity (MAP3K14 (human)) of 81.8%. For the same compound, the residual activity (SRPK2 (human)) was 87.4%, the residual activity (TXK (human)) was 101% and the residual activity (MAP3K9 (human)) was 105%. The residual activity (PTK2B (human)) was 86.1%, the residual activity (CLK1 (human)) was 103% and the residual activity (NLK (human)) was 105%. For the same compound, the residual activity (PLK3 (human)) was 95.9%, the residual activity (SGK3 (human)) was 105% and the residual activity (DAPK1 (human)) was 102%. The residual activity [1] was 97.6%.

c1ccc(-c2n[nH]c3c2oc2ccccc23)cc1 was tested, and the residual activity (TEK (human)) was 96.8%, the residual activity (TAOK3 (human)) was 94.8% and the residual activity (YES1 (human)) was 86.1%. It also gave a residual activity (STK33 (human)) of 96.5%, a residual activity (MAPKAPK2 (human)) of 99.1% and a residual activity (CDK9 CCNK (human)) of 86.2%. For the same compound, the residual activity (IGF1R (human)) was 98.1%, the residual activity (FLT1 (human)) was 94.5% and the residual activity (PAK1 (human)) was 94.9%. For the same compound, the residual activity (AURKB (human)) was 50.8%, the residual activity (MAP3K5 (human)) was 97.4% and the residual activity (GSG2 (human)) was 99.3%. For the same compound, the residual activity (HIPK4 (human)) was 103%, the residual activity (NTRK2 (human)) was 64% and the residual activity (PRKCE (human)) was 86%. It also gave a residual activity (RPS6KB2 (human)) of 99.8%, a residual activity (HIPK2 (human)) of 99.6% and a residual activity (ZAP70 (human)) of 89%. For the same compound, the residual activity (CDK9 CCNT1 (human)) was 83.9%, the residual activity (MAP3K3 (human)) was 94.7% and the residual activity (STK4 (human)) was 99.8%. The residual activity (CAMK1G (human)) was 100%, the residual activity (WNK2 (human)) was 102% and the residual activity (AXL (human)) was 101%. It also gave a residual activity (ITK (human)) of 80.4%, a residual activity (PLK2 (human)) of 102% and a residual activity (SYK (human)) of 97.7%. The residual activity (FLT3 (human)) was 12.1%, the residual activity (CSNK1E (human)) was 91.8% and the residual activity (MAP3K14 (human)) was 71.8%. The residual activity (SRPK2 (human)) was 95%, the residual activity (TXK (human)) was 81.5% and the residual activity (MAP3K9 (human)) was 97.5%. For the same compound, the residual activity (PTK2B (human)) was 96.8%, the residual activity (CLK1 (human)) was 84% and the residual activity (NLK (human)) was 92.3%. It also gave a residual activity (PLK3 (human)) of 99.2%, a residual activity (SGK3 (human)) of 111% and a residual activity (DAPK1 (human)) of 71%. It also gave a residual activity [1] of 89.2%.

Source: the kinase profiling compilation of Christmann-Franck et al. (2016)
